From patent US7928063B2, “Analogs of human growth hormone-releasing hormone, their preparation and use” (Instytut Farmaceutyczny, priority 2001, dated 2011) come the findings set out here.

For one data set, the system named is GH release. Briefly: Effect of subcutaneous administration on GH release (plasma GH by RIA) in male rats. Format: in vivo, rat. The following applies: for Relative potency compared with hGH-RH-(1-29)—NH2: at 15 minutes after the injection; for Plasma GH at various times after injection, 15 min. / Plasma GH at various times after injection, 30 min. / Plasma GH at various times after injection, 0 min.: male rats, mean ± SEM; for Plasma GH at various times after injection, 0 min.: sample 1 minute before injection; for Net GH concentration Δ(15 − 30): GH at 15 min. minus GH at 30 min.; for Net GH concentration Δ(15 − 0): GH at 15 min. minus GH before injection.

The test system of another data set is trypsin. In words: Trypsin digestion test (enzymatic resistance, HPLC). In kind it is in vitro ADME. As to conditions: for Resistance to trypsin digestion (in words): after 30 minutes; for remaining at 0.5 h, 0.4 mg/ml / remaining at 1 h, 0.4 mg/ml: isolated enzyme trypsin, trypsin, pH 8.5, 37° C., read-out: % Unchanged compound; for remaining at 0.5 h, 0.4 mg/ml: digestion time 30 min.; for remaining at 1 h, 0.4 mg/ml: digestion time 60 min. Here is the method: The compounds prepared were also tested for enzymatic resistance in the trypsin digestion test. […] Subsequently, a trypsin solution was added (100 μl; 0.02 mg/ml; Serva, 36 U/mg). […] An aliquot (500 μl) was withdrawn and diluted with 0.5 M acetic acid (1 ml), then lyophilized. The material obtained was analyzed by HPLC, using a Knauer system with an Eurospher 100 C18 (4.6×250 mm, 5 micron) column. The following solvent systems were used: A, 0.1% TFA in water; […]

Square brackets hold non-standard residues; d marks the D form. Peptide text beside a SMILES is read from it. * marks the point of attachment. Desaminotyrosyl = O=C(CCc1ccc(O)cc1)*; hArg = N=C(N)NCCCC[C@H](N)C(=O)O; Nle = CCCC[C@H](N)C(=O)O; Orn = NCCC[C@H](N)C(=O)O

For `CCCC[C@H](NC(=O)[C@@H](NC(=O)[C@H](CC(=O)O)NC(=O)[C@H](CCC(N)=O)NC(=O)[C@H](CC(C)C)NC(=O)[C@H](CC(C)C)NC(=O)[C@H](CCCCNC(=N)N)NC(=O)[C@H](CCCCNC(=N)N)NC(=O)[C@H](C)NC(=O)[C@H](CO)NC(=O)[C@H](CC(C)C)NC(=O)[C@H](CCC(N)=O)NC(=O)[C@H](C)NC(=O)[C@H](CC(C)C)NC(=O)[C@@H](NC(=O)[C@H](CCCCNC(=N)N)NC(=O)[C@H](CCCCNC(=N)N)NC(=O)[C@H](Cc1ccc(O)cc1)NC(=O)[C@H](CO)NC(=O)[C@H](CC(N)=O)NC(=O)[C@@H](NC(=O)[C@H](Cc1ccccc1)NC(=O)[C@@H](NC(=O)[C@H](C)NC(=O)[C@H](CC(=O)O)NC(=O)[C@H](C)NC(=O)CCc1ccc(O)cc1)[C@@H](C)CC)[C@@H](C)O)C(C)C)[C@@H](C)CC)C(=O)N[C@@H](CC(=O)O)C(=O)N[C@@H](CCCCNC(=N)N)C(N)=O` [Compound 1, Dat-Ala-Asp-Ala-Ile-Phe-Thr-Asn-Ser-Tyr^10-hArg-hArg-Val-Leu-Ala-Gln-Leu-Ser-Ala-hArg^20-hArg-Leu-Leu-Gln-Asp-Ile-Nle-Asp-hArg^29-NH2] (Desaminotyrosyl-ADAIFTNSY[hArg][hArg]VLAQLSA[hArg][hArg]LLQDI[Nle]D[hArg]-NH2), the “Relative potency compared with hGH-RH-(1-29)—NH2” value in the data set on GH release (dose 1.0 μg/kg vs 50 μg/kg of hGH-RH-(1-29)—NH2) turned out to be 70 times higher. The “Relative potency compared with hGH-RH-(1-29)—NH2” value with GH release (dose 3.0 μg/kg vs 150 μg/kg of hGH-RH-(1-29)—NH2) amounted to 38 times higher. In the data set with GH release (sc., dose 1 μg/kg), this molecule gave a Plasma GH at various times after injection, 15 min. of 99.1 ± 16 ng/mL; a Plasma GH at various times after injection, 30 min. of 42.5 ± 9.2 ng/mL; a Plasma GH at various times after injection, 0 min. of 23.1 ± 2 ng/mL. Also, in the data set on GH release (sc., dose 3 μg/kg), the Plasma GH at various times after injection, 15 min. came out at 130 ± 16 ng/mL; the Plasma GH at various times after injection, 30 min. was 58.4 ± 8.9 ng/mL; the Plasma GH at various times after injection, 0 min. is 28.3 ± 4.1 ng/mL. In the data set with GH release (rats, sc.), the “Effect on GH release in rats, compared with saline control (in words)” value is on record as “strongest stimulating effect”. In the data set with GH release (rats, sc., dose 1 μg/kg), the “Net GH concentration Δ(15 − 30)” value was determined as 56.5 ± 14.7 ng/mL and the “Net GH concentration Δ(15 − 0)” value was 75.9 ± 16.0 ng/mL. In the data set on GH release (rats, sc., dose 3 μg/kg), the “Net GH concentration Δ(15 − 30)” value amounted to 72.0 ± 12.6 ng/mL and the “Net GH concentration Δ(15 − 0)” value turned out to be 102 ± 12.6 ng/mL. Moreover, in the data set on trypsin, the “Resistance to trypsin digestion (in words)” value is “unchanged”; the remaining at 0.5 h, 0.4 mg/ml is over 99%; the remaining at 1 h, 0.4 mg/ml was over 99%.

Take `CCCC[C@H](NC(=O)[C@@H](NC(=O)[C@H](CC(=O)O)NC(=O)[C@H](CCC(N)=O)NC(=O)[C@H](CC(C)C)NC(=O)[C@H](CC(C)C)NC(=O)[C@H](CCCN)NC(=O)[C@H](CCCCNC(=N)N)NC(=O)[C@H](C)NC(=O)[C@H](CO)NC(=O)[C@H](CC(C)C)NC(=O)[C@H](CCC(N)=O)NC(=O)[C@H](C)NC(=O)[C@H](CC(C)C)NC(=O)[C@@H](NC(=O)[C@H](CCCN)NC(=O)[C@H](CCCCNC(=N)N)NC(=O)[C@H](Cc1ccc(O)cc1)NC(=O)[C@H](CO)NC(=O)[C@H](CC(N)=O)NC(=O)[C@@H](NC(=O)[C@H](Cc1ccccc1)NC(=O)[C@@H](NC(=O)[C@H](C)NC(=O)[C@H](CC(=O)O)NC(=O)[C@H](C)NC(=O)CCc1ccc(O)cc1)[C@@H](C)CC)[C@@H](C)O)C(C)C)[C@@H](C)CC)C(=O)N[C@@H](CC(=O)O)C(=O)N[C@@H](CCCCNC(=N)N)C(N)=O` [Compound 2, Dat-Ala-Asp-Ala-Ile-Phe-Thr-Asn-Ser-Tyr^10-hArg-Orn-Val-Leu-Ala-Gln-Leu-Ser-Ala-hArg^20-Orn-Leu-Leu-Gln-Asp-Ile-Nle-Asp-hArg^29-NH2] (Desaminotyrosyl-ADAIFTNSY[hArg][Orn]VLAQLSA[hArg][Orn]LLQDI[Nle]D[hArg]-NH2): in the data set with trypsin, the “Resistance to trypsin digestion (in words)” value is on record as “unchanged”; the remaining at 0.5 h, 0.4 mg/ml was over 99%; the remaining at 1 h, 0.4 mg/ml was over 99%.
